Measurements taken from patent publication US20180303830A1, “CANCERS EXPRESSING CCR5 AND METHODS OF TREATMENT OF SAME” (THOMAS JEFFERSON UNIVERSITY, priority 2015, published 2018).

What was measured:
FC-IBC-02 cells = assay: Boyden chamber migration and invasion assay in FC-IBC-02 cells; assay type: cell-based, human; conditions: 100 μM, 48 hrs, compared to control; for invasion of FC-IBC-02 cells: matrigel-coated membrane; for migration of FC-IBC-02 cells: noncoated membrane
Experimental: The effects of CCR5 antagonists (Maraviroc and Vicriviroc) on cell migration and invasion in vitro were examined using matrigel-coated Boyden chamber assay in FC-IBC-02 cells, which are triple-negative, basal-like, cancer stem cell phenotype, and rapidly developed primary tumors and metastasis in vivo. Cells were treated by Maraviroc and Vicriviroc at 100 μM and support the conclusion that CCR5 is highly expressed in basal-like human IBC cells.
In FIG. 3, CCR5 antagonists Maraviroc and Vicriviroc suppress the migration and invasion of FC-IBC-02 cells. FIGS. 3A and 3B depict control and CCR5 antagonists treated cells at equal number were seeded onto the noncoated membrane (migration) and matrigel-coated membrane (invasion). After incubating 48 hrs. the cells crossed the membrane were stained with 0.05% crystal violet. FIGS. 3C and 3D, quantitation of 3A and 3B compared to controls was indicated.

SUM159 cells [1] = assay: Lung metastasis of SUM159 cells in SCID mice, photon flux (IVIS); assay type: in vivo
From the text: The CCR5 antagonist, Maraviroc, was previously approved by the US Food and Drug Administration (FDA) for the use in treatment-nave adult […] with CCR5-trophic HIV. In order to determine the role endogenous CCR5 within SUM159 cells in lung metastasis, cells were introduced into SCID immune deficient mice, and tumor volume characterized using the IVIS system. […] (p<0.0001).
FIG. 7. Endogenous CCR5 promotes lung metastases in mice. FIG. 7A Representative timed photon emission of mice injected with SUM159 cells treated with either control or Maraviroc (at 14 mg/kg mouse body, time as shown in weeks). FIG. 7B Mean±SEM of photon flux for 6 animals in control group and 7 animals in maraviroc treatment group shown in 5 weeks. Maraviroc treatment reduces mean lung tumor volume by 98% which detected by photon flux ((3.01±1.16)×10^7 vs (1.05±0.44)×10^8, p=0.063 with Mann-Whitney Test).

SUM159 cells [2] = assay: Phospho-γH2AX Western-blot of doxorubicin induced DNA damage in SUM159 cells; assay type: cell-based, human; conditions: for doxorubicin induced phospho-γH2AX (DNA damage): 100 μM, SUM159 cells, doxorubicin treatment; for effect on CCR5-mediated DNA repair (phospho-γH2AX western-blot and DNA repair reporter assay): breast cancer cells overexpressing CCR5, doxorubicin and γ-radiation induced DNA damage
From the text: The chemokine receptor CCR5 is normally expressed on the surface of immune cells and served as HIV co-receptor. […] Compared with CCR5− cells, the CCR5+ cells were enriched with DNA damage/repair gene signature. […] Based on the existing theory that the resistance of cancer cells to the chemotherapy and radiation therapy caused by the existence of cancer stem cells, the inhibition of CCR5 by CCR5 antagonists will sensitize the response of breast cancer cells to chemotherapy and radiation therapy, therefore increase the efficiency of DNA damage inducing chemotherapy treatment for CCR5 expressing cancers.
FIG. 9. […] FIG. 9A The CCR5 stable-transfected and vector-control SUM159 cells were illuminated with 6.5 Gy of γ-radiation. The samples were collected at 0.5, 3 and 24 hours after y-radiation. The recruitment of phosphor-γH2AX and the reduction of abundance were faster in CCR5-transfected cells than vector-control cells. FIG. 9B The CCR5 stable-transfected and vector-control SUM159 cells were treated with doxorubicin. […] FIG. 9C CCR5 antagonist increased DNA damage in SUM159 cells. SUM159 cells treated with CCR5 antagonist, Maraviroc and Vicriviroc, both at 100 μM. DNA damage was induced by doxorubicin treatment. There are more doxorubicin induced phospho-γH2AX in Marviroc and Vicriviroc treated groups.

[3] = test system: basal-like breast cancer model; assay: In vivo metastasis in a basal-like breast cancer model; parameters: species or system mice
From the text: Chemokine CCL5 and its receptor CCR5 play a significant role in cancer progression and metastasis. Metastasis is the primary cause of death in patients with breast cancer. No effective treatments currently exist that are directed specifically to the metastatic process. There is evidence that the CCR5 receptor is expressed in a subset of human breast cancers. Importantly, embodiments disclosed herein support that CCR5 inhibitors previously developed and FDA approved for treatment of HIV, can effectively block breast cancer metastasis in preclinical models, thereby providing for an effective treatment of said metastatic breast cancers. The repurposing of drugs for alternative use in cancer metastasis, drugs that were previously approved by the FDA, may provide a more rapid solution for this deadly disease. Indeed, CCR5 inhibition by the FDA approved CCR5 antagonists Maraviroc and Vicriviroc reduced in vivo metastasis in a basal-like breast cancer model.
Indeed, in studies described herein, CCR5 is sufficient to induce invasiveness of breast cancer cells into matrigel, and metastasis to the lungs of mice. Accordingly, two distinct CCR5 inhibitors, maraviroc and vicriviroc, blocked CCR5 signaling and thereby block migration, invasion and metastasis in mice. […] The dose of CCR5 inhibitor used in these mouse models was the same as the dose used in patients for HIV.

Cc1nnc(C(C)C)n1[C@@H]1C[C@H]2CC[C@@H](C1)N2CC[C@H](NC(=O)C1CCC(F)(F)CC1)c1ccccc1 [Maraviroc, 4,4-difluoro-N-{(1S)-3-[3-(3-isopropyl-5-methyl-4H-1,2,4-triazol-4-yl)-8-azabicyclo[3.2.1]oct-8-yl]-1-phenylpropyl}cyclohexanecarboxamide]
invasion of FC-IBC-02 cells (FC-IBC-02 cells): suppress | migration of FC-IBC-02 cells (FC-IBC-02 cells): suppress | photon flux, Mean±SEM (SUM159 cells [1]; 14 mg/kg, 5 weeks, 7 animals, p=0.063 Mann-Whitney vs control): (3.01±1.16)×10^7 | reduction of mean lung tumor volume detected by photon flux (SUM159 cells [1]; 14 mg/kg, 5 weeks, vs control): 98% | increase in breast cancer lung metastases (photon flux) in the control group compared to the treated group (SUM159 cells [1]; SUM159 cells in SCID mice, administered orally): 15 fold | percentage of mice with detectable lung metastases (SUM159 cells [1]; SUM159 cells in SCID mice, administered orally, p<0.0001): significantly reduced | doxorubicin induced phospho-γH2AX (DNA damage) (SUM159 cells [2]): more | effect on CCR5-mediated DNA repair (phospho-γH2AX western-blot and DNA repair reporter assay) (SUM159 cells [2]): abolished these effects | in vivo metastasis [3]: reduced

COCC(c1ccc(C(F)(F)F)cc1)N1CCN(C2(C)CCN(C(=O)c3c(C)ncnc3C)CC2)C[C@@H]1C (stereo partly drawn) [Vicriviroc, 5-({4-[(3S)-4-{2-methoxy-1-[4-(trifluoromethyl)phenyl]ethyl}-3-methylpiperazin-1-yl]-4-methylpiperidin-1-yl}carbonyl)-4,6-dimethylpyrimidine]
invasion of FC-IBC-02 cells (FC-IBC-02 cells): suppress | migration of FC-IBC-02 cells (FC-IBC-02 cells): suppress | doxorubicin induced phospho-γH2AX (DNA damage) (SUM159 cells [2]): more | effect on CCR5-mediated DNA repair (phospho-γH2AX western-blot and DNA repair reporter assay) (SUM159 cells [2]): abolished these effects | in vivo metastasis [3]: reduced
